Reference: ChEMBL document CHEMBL1139247 (Bioorg Med Chem Lett, 2009)

Key:
[1] = Displacement of [3H]gabapentin from alpha2-delta subunit of voltage gated calcium channel in pig brain membrane; type: cell membranes, Sus scrofa
[2] = Half life in rat plasma; type: ADME, organism-based
[3] = Volume of distribution at steady state in rat; type: ADME, organism-based; details: in vivo, read-out: Vdss
[4] = AUC in rat; type: ADME, organism-based; details: plasma
[5] = Drug level in Sprague-Dawley rat brain at 30 mg/kg, po after 2 hrs
[6] = Plasma concentration in Sprague-Dawley rat at 30 mg/kg, po after 2 hrs; type: ADME, organism-based; design: dose 30 mg/kg, route oral
[7] = Bioavailability in rat; type: ADME, organism-based; details: in vivo
[8] = Displacement of [3H]leucine from Large neutral amino acids transporter system L in CHO cells; type: cell-based, Cricetulus griseus
Mus musculus [9] = experiment: Anticonvulsant activity in DBA/2 mouse assessed as protection from audiogenically-induced tonic seizures at 30 mg/kg, po after 1 hr; type: functional
[10] = Clearance in rat; type: ADME, organism-based; details: in vivo
Mus musculus [11] = experiment: Anxiolytic activity in DBA/2 mouse assessed as restoration of punished drinking behavior at 30 mg/kg, po relative to pregabalin; type: functional
Rattus norvegicus [12] = experiment: Reduction in renal clearance in Wistar rat at 3 mg/kg, iv after 5 mins in presence of probenecid relative to control; type: ADME, organism-based; design: dose 3 mg/kg, route intravenous; details: in vivo
Rattus norvegicus [13] = experiment: Reduction in renal clearance in Wistar rat at 3 mg/kg, iv after 5 mins in presence of cimetidine relative to control; type: ADME, organism-based; design: dose 3 mg/kg, route intravenous; details: in vivo
[14] = Unbound fraction in rat; type: ADME, organism-based; details: in vivo

NCC1(Cc2noc(=O)[nH]2)CCCC1
IC50 [1]: 1.14 µM

CC(C)C[C@H](CN)CC(=O)O [PREGABALIN]
half-life [2]: 2.7 h
Vd [3]: 0.79 L/kg
AUC [4]: 14800 ng·h/mL
concentration at 2 h [5]: 7360 ng/mL
concentration at 2 h [6]: 25600 ng/mL
bioavailability [7]: 83%
IC50 [8]: 158 µM
Activity (Mus musculus [9]): 100%
clearance [10]: 2.9 mL/min/kg
Activity (Mus musculus [11]): 100%

Cn1c(CC2(CN)CCCCC2)noc1=O
IC50 [1]: > 10 µM

NCC1(Cc2nnn[nH]2)CCCCC1
IC50 [1]: 0.1 µM
IC50 [8]: > 10000 µM

C[C@@H]1C[C@H](C)C[C@](CN)(Cc2noc(=O)[nH]2)C1
IC50 [1]: > 10 µM

NCC1(Cc2noc(=O)[nH]2)CCCCCC1
IC50 [1]: 0.158 µM

C[C@@H]1C[C@H](C)C[C@@](CN)(Cc2noc(=O)[nH]2)C1
IC50 [1]: 0.07 µM

NCC1(Cc2noc(=O)[nH]2)CCCCC1
half-life [2]: 1.6 h
Vd [3]: 1.25 L/kg
AUC [4]: 2200 ng·h/mL
reduction in CL_renal (Rattus norvegicus [12]): 57%
reduction in CL_renal (Rattus norvegicus [13]): 35%
concentration at 2 h [6]: 15000 ng/mL
bioavailability [7]: 97%
IC50 [8]: > 10000 µM
fraction unbound [14]: > 0.9
Activity (Mus musculus [9]): 20%
clearance [10]: 20.3 mL/min/kg
Activity (Mus musculus [11]): 11%

C[C@@H]1CCC[C@@](CN)(Cc2noc(=O)[nH]2)C1
IC50 [1]: 0.084 µM

NCC1(CC(=O)O)CCCCC1 [GABAPENTIN]
half-life [2]: 1.5 h
IC50 [1]: 0.07 µM
IC50 [8]: 30 µM
Activity (Mus musculus [9]): 100%
Activity (Mus musculus [11]): 60%

CC(C)CC(CN)Cc1noc(=O)[nH]1 (racemic)
IC50 [1]: 1.5 µM

Cn1nnnc1CC1(CN)CCCCC1
IC50 [1]: > 10 µM

NCC1(Cc2noc(=O)[nH]2)CCCCCCC1
IC50 [1]: 5.6 µM
